Experimental findings from patent US7056917B2, “Drug efflux pump inhibitor” (Daiichi Pharmaceutical Co., Ltd., priority 2001, dated 2006) are described below.

Assay [1] concerns Pseudomonas aeruginosa wild strain PAM 1020. Put plainly: Combined use of a pump inhibitor, levofloxacin (LVFX) and meropenem (MEPM) evaluated by the three-dimensional checker board method. The class given is cell-based. Conditions: for FIC index: PAM 1020. The protocol:
(1) Effect of Combined Used of a Pump Inhibitor, Levofloxacin (LVFX) and Meropenem (MEPM) Evaluated by the Three-Dimensional Checker Board Method
The effect was measured by the three-dimensional checker board method by using Pseudomonas aeruginosa wild strain PAM 1020. The test strain was inoculated into Mueller-Hinton broth containing LVFX, MEPM (at 11 concentration levels and 0 μg/ml) and the compound of Example 26 (40-0.625 μg/ml and 0 μg/ml) at a concentration of 10^6 CFU/ml and cultured at 37° C. for 18 hours. Then, MIC was measured for sole and combined use. Measurement was performed by the checker board method and FIC index was calculated according to the following equation. FIC index=a/a0+b/b0+c/c0 wherein a0: MIC for Agent A used alone, a: MIC for Agent A when Agents A, B and C are used in combination, b0: MIC for Agent B used alone, b: MIC for Agent B when Agents A, B and C are used in combination, c0: MIC for Agent C used alone, c: MIC for Agent C when Agents A, B and C are used in combination.
It was determined that there was synergistic effect when FIC index was 0.75 or less, additive effect or weak synergistic effect when the index was more than 0.75 but not more than 1.125, no effect of combined use when the index was more than 1.125 but not more than 3.0, and antagonistic effect when the index was more than 3.0.

For assay [2], the system named is Pseudomonas aeruginosa PAM 1723 strain highly expressing the drug efflux pump. As to the kind of experiment: Effect of combined use with antimicrobial agent (levofloxacin, aztreonam) on multidrug resistant Pseudomonas aeruginosa. The format is cell-based. The note with it: 18 hours, MHB; for MPC8 AZT: minimum concentration of test compound required to enhance antibacterial activity of aztreonam at 1/8 or less of MIC; for MPC4 LVFX: minimum concentration of test compound required to enhance antibacterial activity of levofloxacin applied at 1/4 of MIC; for MPC8 LVFX: minimum concentration of test compound required to enhance antibacterial activity of levofloxacin applied at 1/8 or less of MIC. The text has this:
Effect of Combined Use with Antimicrobial Agent on Multidrug Resistant Pseudomonas aeruginosa
As multidrug resistant Pseudomonas aeruginosa, Pseudomonas aeruginosa PAM 1723 strain highly expressing the drug efflux pump was used. As antimicrobial drugs for the combinational uses, levofloxacin (LVFX) as a quinolone antibacterial agent and aztreonam (AZT) as a monobactam antibiotic were used. Each of the compounds shown in Table 1 with Example No., which falls within the compounds of the present invention, was subjected to the measurement of its minimum concentration (μg/ml) that was required to enhance the antibacterial activity of levofloxacin when the test compound was used in combination with levofloxacin applied at a concentration of 1/4, or 1/8 or less of the minimum inhibitory concentration against the PAM 1723 strain. […] Effects as combinational uses for 18 hours was indicated for each of the drugs. Effects were determined by visually observing the turbidity of the medium. The Müller-Hinton broth (MHB, Difco) was used as a medium, and the inoculum of the bacteria was 1×10^6 CFU/ml.

As a reminder, the MIC is the smallest concentration in the dilution series that meets the test's criterion for growth inhibition. Consider `CC(C)c1csc(CCc2ccn3c(=O)c(/C=C/C(=O)O)c(N4CCCC(O)C4)nc3c2)n1` (stereo not shown) [Example 26], for which the FIC index in assay [1] (LVFX + MEPM 0.016 μg/ml + compound of Example 26 0.625 μg/ml) came to 1.039; in assay [1] (LVFX + MEPM 0.016 μg/ml + compound of Example 26 1.25 μg/ml), 1.047; in assay [1] (LVFX + MEPM 0.016 μg/ml + compound of Example 26 2.5 μg/ml), 1.063; in assay [1] (LVFX + MEPM 0.016 μg/ml + compound of Example 26 5 μg/ml), 0.594; in assay [1] (LVFX + MEPM 0.016 μg/ml + compound of Example 26 10 μg/ml) it was 0.656; in assay [1] (LVFX + MEPM 0.016 μg/ml + compound of Example 26 20 μg/ml), 0.781. Also, the FIC index was determined as 1.031 in assay [1] (LVFX + MEPM 0.016 μg/ml + compound of Example 26 40 μg/ml); 1.07 in assay [1] (LVFX + MEPM 0.0313 μg/ml + compound of Example 26 0.625 μg/ml); 1.078 in assay [1] (LVFX + MEPM 0.0313 μg/ml + compound of Example 26 1.25 μg/ml); 0.5938 in assay [1] (LVFX + MEPM 0.0313 μg/ml + compound of Example 26 2.5 μg/ml); 0.625 in assay [1] (LVFX + MEPM 0.0313 μg/ml + compound of Example 26 5 μg/ml); 0.6875 in assay [1] (LVFX + MEPM 0.0313 μg/ml + compound of Example 26 10 μg/ml). For the same compound, the FIC index in assay [1] (LVFX + MEPM 0.0313 μg/ml + compound of Example 26 20 μg/ml) was 0.8125; in assay [1] (LVFX + MEPM 0.0313 μg/ml + compound of Example 26 40 μg/ml) it was 1.0625; in assay [1] (LVFX + MEPM 0.0625 μg/ml + compound of Example 26 0.625 μg/ml), 1.133; in assay [1] (LVFX + MEPM 0.0625 μg/ml + compound of Example 26 1.25 μg/ml), 0.641; in assay [1] (LVFX + MEPM 0.0625 μg/ml + compound of Example 26 2.5 μg/ml), 0.656; in assay [1] (LVFX + MEPM 0.0625 μg/ml + compound of Example 26 5 μg/ml), 0.438. The FIC index in assay [1] (LVFX + MEPM 0.0625 μg/ml + compound of Example 26 10 μg/ml) came to 0.500; in assay [1] (LVFX + MEPM 0.0625 μg/ml + compound of Example 26 20 μg/ml), 0.500; in assay [1] (LVFX + MEPM 0.0625 μg/ml + compound of Example 26 40 μg/ml) it was 0.750; in assay [1] (LVFX + MEPM 0.125 μg/ml + compound of Example 26 0.625 μg/ml) it was 0.781; in assay [1] (LVFX + MEPM 0.125 μg/ml + compound of Example 26 1.25 μg/ml), 0.563; in assay [1] (LVFX + MEPM 0.125 μg/ml + compound of Example 26 2.5 μg/ml) it was 0.500. Further, the FIC index is given as 0.563 in assay [1] (LVFX + MEPM 0.125 μg/ml + compound of Example 26 5 μg/ml), 0.766 in assay [1] (LVFX + MEPM 0.125 μg/ml + compound of Example 26 10 μg/ml) and 1.063 in assay [1] (LVFX + MEPM 0.25 μg/ml + compound of Example 26 0.625 μg/ml). In addition, the minimum inhibitory concentration (MIC) in assay [1] (Pseudomonas aeruginosa, agent used alone, PAM 1020 strain) is at least 80 µg/mL. For the same compound, the “MPC8 AZT” value in assay [2] turned out to be 1 µg/mL. The “MPC4 LVFX” value in assay [2] is 0.25 µg/mL. For the same compound, the “MPC8 LVFX” value in assay [2] was 1 µg/mL.
In the case of `CC(C)c1csc(/C=C/c2ccn3c(=O)c(/C=C/C(=O)O)c(N4CCN(C(=O)[C@@H](N)CCCNC(=N)N)CC4)nc3c2)n1` [Example 78, (E)-3-{2-[4-((2 S)-2-Amino-5-{[amino(imino)methyl]amino}pentanoyl)-piperazino]-8-[(E)-2-(4-isopropyl-1,3-thiazol-2-yl)-1-ethenyl]-4-oxo-4H-pyrido[1,2-a]-pyrimidin-3-yl}-2-propenoic acid], in assay [2], the “MPC8 AZT” value was determined as 1 µg/mL, the “MPC4 LVFX” value stood at 0.5 µg/mL and the “MPC8 LVFX” value came out at 1 µg/mL.
As for `CC(C)c1csc(CCc2ccn3c(=O)c(/C=C/C(=O)[O-])c(N4CCN(C(=O)C[N+]56CCC(CC5)CC6)CC4)nc3c2)n1` [Example 94, (E)-3-{2-4-[2-(1-Azabicyclo[2.2.2]oct-1-yl)acetyl]piperazino-8-[2-(4-isopropyl-1,3-thiazol-2-yl)ethyl]-4-oxo-4H-pyrido[1,2-a]pyrimidin-3-yl}-2-propenoic acid], in assay [2], the “MPC8 AZT” value was 16 µg/mL, the “MPC4 LVFX” value was determined as 4 µg/mL and the “MPC8 LVFX” value was 16 µg/mL.
Turning to `CC(C)c1csc(CCc2ccn3c(=O)c(/C=C/C(=O)NS(C)(=O)=O)c(N4CCOCC4)nc3c2)n1` [Example 98, N-((E)-3-{8-[2-(4-Isopropyl-1,3-thiazol-2-yl)ethyl]-2-morpholino-4-oxo-4H -pyrido[1,2-a]pyrimidin-3-yl}-2-propenoyl)methanesulfonamide], in assay [2], the “MPC8 AZT” value turned out to be 4 µg/mL, the “MPC4 LVFX” value came to 1 µg/mL and the “MPC8 LVFX” value is 4 µg/mL.
As to `CC(C)c1csc(/C=C/c2ccn3c(=O)c(/C=C/c4nnn[nH]4)c(N4CCCC(O)C4)nc3c2)n1` (stereo not shown) [Example 104, 2-(3-Hydroxypiperidino)-8-[(E)-2-(4-isopropyl-1,3-thiazol-2-yl)-1-ethenyl]-3-[(E)-2-(1H-1,2,3,4-tetrazol-5-yl)-1-ethenyl]-4H-pyrido[1,2-a]pyrimidin-4-one], in assay [2], the “MPC8 AZT” value was 0.5 µg/mL, the “MPC4 LVFX” value was 0.24 µg/mL and the “MPC8 LVFX” value was 1 µg/mL.
Taken in the same sequence, the figures for `CC(C)c1csc(/C=C/c2ccn3c(=O)c(/C=C/C(=O)O)c(OCC4CCOC4)nc3c2)n1` (stereo not shown) [Example 117, (E)-3-{8-[(E)-2-(4-Isopropyl-1,3-thiazol-2-yl)-1-ethenyl]-4-oxo-2-(tetrahydro-3-furanylmethoxy)-4H-pyrido[1,2-a]pyrimidin-3-yl}-2-propenoic acid] were 4 µg/mL, 1 µg/mL and 4 µg/mL.
Take `CC(C)c1csc(CCc2ccn3c(=O)c(/C=C/C(=O)O)c(-c4ccncc4)nc3c2)n1` [Example 130]: in assay [2], the “MPC8 AZT” value worked out at 8 µg/mL, the “MPC4 LVFX” value was found to be 2 µg/mL and the “MPC8 LVFX” value came to 8 µg/mL.
Turning to `CC(C)c1csc(CCc2ccn3c(=O)c(/C=C(\F)C(=O)O)c(N4CCOCC4)nc3c2)n1` [Example 135, (Z)-2-Fluoro-3-{8-[2-(4-isopropyl-1,3-thiazol-2-yl)ethyl]-2-morpholino-4-oxo-4H-pyrido[1,2-a]pyrimidin-3-yl}-2-propenoic acid], in assay [2], the “MPC8 AZT” value was determined as 8 µg/mL, the “MPC4 LVFX” value stood at 4 µg/mL and the “MPC8 LVFX” value is 16 µg/mL.
On the same counts, the results for `CC(C)c1csc(CCc2ccn3c(=O)c(/C=C4/SC(=O)NC4=O)c(N4CCOCC4)nc3c2)n1` [Example 141, 5-(1-{8-[2-(4-Isopropyl-1,3-thiazol-2-yl)ethyl]-2-morpholino-4-oxo-4H-pyrido[1,2-a]pyrimidin-3-yl}methylidene)-1,3-thiazolidine-2,4-dione] are 2 µg/mL, 0.25 µg/mL and 16 µg/mL.
With `CC(C)c1csc(CCc2ccn3c(=O)c(/C=C/C(=O)O)c(SCC(N)=O)nc3c2)n1` [Example 152, (E)-3-{2-Aminocarbonylmethylthio-8-[2-(4-isopropyl-1,3-thiazol-2-yl)-ethyl]-4-oxo-4H-pyrido[1,2-a]pyrimidin-3-yl}-2-propenoic acid], in assay [2], the “MPC8 AZT” value was 4 µg/mL, the “MPC4 LVFX” value was 2 µg/mL and the “MPC8 LVFX” value is 8 µg/mL.
On the same counts, the results for `CCn1cc(-c2nn[nH]n2)c(=O)c2ccc(/C=C/c3nc(C(C)C)cs3)nc21` [Example 155, 1-Ethyl-7-[(E)-2-(4-isopropyl-1,3-thiazol-2-yl)-1-ethenyl]-3-(1H-1,2,3,4-tetrazol-5-yl)-1,4-dihydro[1,8]naphthylidin-4-one] are 2 µg/mL, 0.25 µg/mL and 2 µg/mL.
